Source: patent publication US9446081B2, “Pharmaceutical composition for preventing and treating complications of diabetes containing a traditional oriental medicine extract or a fraction thereof as an active ingredient” (KOREA INSTITUTE OF ORIENTAL MEDICINE, priority 2011, dated 2016)
Converted amounts (≈) assume the structure as drawn. One block for each molecule: values may come before it.

What was measured:
[1] = molecular target: T1, aldose reductase from lens of SD rat (Rattus norvegicus, UniProt P07943); assay: Inhibiting effect on aldose reductase (AR) activity; format: biochemical, Sprague-Dawley rat
T1 construct: natural aldose reductase from the eyeball of SD rat; from tissue; host or cells: Sprague-Dawley rat lens, homogenised; centrifuged and filtered supernatant
Experimental: Inhibiting effect of the extract of Homonoia riparia Lour. or the fractions (normal-hexane fraction, ethyl acetate fraction, normal-butanol fraction, and water fraction) thereof on aldose reductase activity was investigated in vitro. To obtain natural aldose reductase from the eyeball of SD rat (Sprague-Dawley rat, 250˜280 g) according to the method of Dufrane (1984), 135 mM Na, K-phosphate buffer (pH 7.0), and 10 mM 2-mercaptoethanol were mixed with the extracted lens, which was ground by using a homogenizer and a sonicater. After performing centrifugation at 14,000 rpm for 30 minutes, the supernatant was filtered by using 0.2 μm filter. All the procedures were performed at 4° C. Quantification was performed by Lowry method using BSA as a protein source of the enzyme. The mixture comprising 135 mM Na, K-phosphate buffer (pH 7.0), 100 mM lithium sulfate, 0.03 mM NADPH, 0.04 mM DL-glycealdehyde and 100 μg/ml enzyme mixture was dissolved in 0.1% DMSO, which was distributed to 50 μl of each sample diluted at different concentrations by 50 μl to make the total volume 1 ml, followed by culture for 10 minutes at 37° C. The experimental blank group was added with the mixture excluding 0.04 mM DL-glycealdehyde, and STD was treated with the sample including 135 mM Na, K-phosphate buffer (pH 7.0), 100 mM lithium sulfate, and 50 μl of NADP (0.2˜5 μM). The reaction was terminated by adding 0.3 ml of 0.5 N HCl. 1 ml of 6 M NaOH including 10 mM imidazole was added thereto, followed by reaction at 60° C. for 10 minutes. Then, the conversion of NADP to fluorescent product was measured. The examination was performed in triplicate. The effect was measured by using a spectrofluorophotometric detector (Bio-TEK, Synergy HT, USA) (Ex. 360 nm, Em. 460 nm) and presented as IC50. The extract of Homonoia riparia Lour. was prepared at the concentration of 1 μg/ml, 2.5 μg/ml, or 5 μg/ml. The normal-hexane fraction was prepared at the concentration of 2.5 μg/ml, 5 μg/ml, or 10 μg/ml. The ethyl acetate fraction was prepared at the concentration of 0.5 μg/ml, 1 μg/ml, or 2.5 μg/ml. The normal-butanol fraction was prepared at the concentration of 1 μg/ml, 2.5 μg/ml, or 5.0 μg/ml. The water fraction was prepared at the concentration of 2.5 μg/ml, 5 μg/ml, or 10 μg/ml. As the comparative control group, one of the excellent aldose reductase inhibitors, 3,3-tetramethyleneglutaric acid, was prepared at the concentration of 3.72 μg/ml, 4.66 μg/ml, or 5.59 μg/ml. Then, AR inhibiting effect of each sample was measured.

[2] = molecular target: AGE-BSA cross-linked to collagen (Bos taurus, UniProt P02769); assay: In vitro AGE cross-linking breaking effect (AGE-BSA on collagen-coated plate, ELISA); format: biochemical; settings: 4 hours at 37° C.; for AGE-BSA (%) remaining cross-linked: OD of treated well/untreated well x100
Experimental: 1.0 μg of AGE-BSA was distributed in a collagen-coated 96-well microtitre plate, followed by culture for 4 hours at 37° C. The plate was then washed with PBS containing 0.05% tween three times to eliminate non-conjugated AGE-BSA. Homonoia riparia Lour. The extract of Homonoia riparia Lour. or ALT-711 (4,5-dimethyl-3-(2-oxo-2-phenylethyl)-thiazolium chloride; Alteon Inc., Ramsey, N.J.) known as the AGEs cross-linking breaker was 2-fold diluted serially from the concentration of 1000 μg/ml to 1 μg/ml, which was added to each well (triplicate), followed by culture for 4 hours at 37° C. Upon completion of the culture, each well was washed with PBS containing 0.05% tween three times. To detect the AGE-BSA remaining as cross-linked to collagen, rabbit polyclonal anti-AGE-BSA antibody (MBL international, Woburn, Mass.) diluted at the ratio of 1:250 was distributed in each well, followed by culture for 1 hour at 37° C. One hour later, the plate was washed with PBS containing 0.05% tween three times, to which horseradish peroxidase-linked goat anti-rabbit antibody (Sigma, USA) was applied. Color development was induced by using 3,3′,5,5′-tetramethylbenzidine (TMB) as a substrate and OD450 was measured. Breaking % of AGE-BSA cross-linking was calculated by the following mathematical formula 2. AGE-BSA (%)=OD of sample treated well/OD of sample untreated well×100 [Mathematical Formula 2]

[3] = test system: advanced glycation endproducts production (bovine serum albumin + fructose/glucose); assay: Inhibiting effect on advanced glycation endproducts production (BSA with fructose/glucose, fluorescence); format: biochemical; settings: 14 days at 37° C.
Experimental: Inhibiting effect of the extract of Homonoia riparia Lour. obtained in <Example 1> and each fraction thereof (normal-hexane, ethyl acetate, normal-butanol, or water fraction) obtained in <Example 2> on the advanced glycation endproducts production was investigated in vitro. Bovine serum albumin (BSA, Sigma, USA) was used as a protein source. BSA was added to 50 mM phosphate buffer (pH 7.4) to make the concentration 10 mg/ml. 0.2 M fructose/0.2 M glucose mixed solution was used as a sugar source. The fructose/glucose mixed solution was added to the BSA solution prepared above. The ethanol extract of Homonoia riparia Lour. was prepared at the concentration of 2.5 μg/ml, 5 μg/ml, or 10 μg/ml. The normal-hexane fraction was prepared at the concentration of 10 μg/ml, 25 μg/ml, or 50 μg/ml. The ethyl acetate fraction was prepared at the concentration of 1.25 μg/ml, 2.5 μg/ml, or 5 μg/ml. The normal-butanol fraction was prepared at the concentration of 1.25 μg/ml, 2.5 μg/ml, or 5 μg/ml. The water fraction was prepared at the concentration of 2.5 μg/ml, 5 μg/ml, or 10 μg/ml. All the compounds were dissolved in dimethylsulfoxide (DMSO), to which 15% tween 80 was added. At that time, the final DMSO content was 0.2%. The prepared extract or the fractions thereof were added to the BSA/sugar mixed solution, followed by culture for 14 days at 37° C. At that time, 0.02% sodium azide and antimycotics were added as an anti-bacterial agent and an anti-fungal agent. The BSA/sugar mixed solution was cultured, which was used as the control. The extract or the fractions thereof were used as the blank. In the meantime, aminoguanidine was used as the positive control, which was the index for the effect comparison. Particularly, aminoguanidine was dissolved in distilled water, followed by culture by the same manner as described above at the concentration of 18.5 μg/ml, 37 μg/ml, or 55.5 μg/ml for 14 days. All the culture solutions were prepared 4 of each to minimize error. After 14 days of culture, the amount of the advanced glycation endproducts was measured. The advanced glycation endproducts were fluorescent brown and had physiochemical property suitable for cross-linking, and also had ligands which could be recognized by cell membrane receptors. The amount of the advanced glycation endproducts having the said properties was measured by a microplate reader (Excitation: 350 nm, Emission: 450 nm) to evaluate the inhibiting effect on the advanced glycation endproducts production (Vinson, J. A. et al., J. Nutr. Biochem., 7: 659-663, 1996). Inhibition rate of the advanced glycation endproducts production was calculated by the following mathematical formula 1. […]

Chain of AGE-BSA cross-linked to collagen (P02769 25-607): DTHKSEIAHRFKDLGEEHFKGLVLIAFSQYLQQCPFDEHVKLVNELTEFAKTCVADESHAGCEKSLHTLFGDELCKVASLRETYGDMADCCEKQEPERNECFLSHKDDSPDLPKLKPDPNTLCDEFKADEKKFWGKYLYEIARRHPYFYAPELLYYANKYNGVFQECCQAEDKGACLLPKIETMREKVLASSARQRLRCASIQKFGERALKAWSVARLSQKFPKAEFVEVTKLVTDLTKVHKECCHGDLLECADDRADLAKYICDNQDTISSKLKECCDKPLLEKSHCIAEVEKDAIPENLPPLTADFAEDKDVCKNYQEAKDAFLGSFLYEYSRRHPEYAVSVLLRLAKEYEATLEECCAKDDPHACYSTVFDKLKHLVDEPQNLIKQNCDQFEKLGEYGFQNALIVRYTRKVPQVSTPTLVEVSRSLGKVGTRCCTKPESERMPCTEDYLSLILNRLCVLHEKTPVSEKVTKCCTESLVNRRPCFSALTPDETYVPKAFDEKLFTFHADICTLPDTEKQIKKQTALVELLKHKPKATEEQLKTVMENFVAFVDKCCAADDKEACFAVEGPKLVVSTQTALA

inhibition at 3.72 µg/mL ([1]; conc. 3.72 μg/ml): 33 ± 4.36%
inhibition at 4.66 µg/mL ([1]; conc. 4.66 μg/ml): 40.3 ± 1.36%
inhibition at 5.59 µg/mL ([1]; conc. 5.59 μg/ml): 51.6 ± 0.78%
IC50 ([1]; rat lens enzyme, read-out: Inhibiting effect (IC50) (μg/ml), aldose reductase (converted)): 29.1 µM
SMILES: O=C(O)CC1(CC(=O)O)CCCC1 [3,3-tetramethyleneglutaric acid]

IC50 ([2]; read-out: IC50 (μg/ml), AGE-BSA cross-linking breaking): > 3730 µM
AGE-BSA (%) remaining cross-linked ([2]; conc. 10 μg/ml): 100.18 ± 18.4%
AGE-BSA (%) remaining cross-linked ([2]; conc. 50 μg/ml): 100.13 ± 4.42%
AGE-BSA (%) remaining cross-linked ([2]; conc. 100 μg/ml): 100.21 ± 5.46%
AGE-BSA (%) remaining cross-linked ([2]; conc. 1000 μg/ml): 51.77 ± 9.54%
SMILES: Cc1sc[n+](CC(=O)c2ccccc2)c1C.[Cl-] [ALT-711, 4,5-dimethyl-3-(2-oxo-2-phenylethyl)-thiazolium chloride]

IC50 (μg/ml) 14th day, advanced glycation endproducts production [3]: 52.96 µg/mL (≈ 715 µM)
Inhibition (%) 14th day ([3]; conc. 18.5 μg/ml): 15.50 ± 1.79%
Inhibition (%) 14th day ([3]; conc. 37 μg/ml): 33.56 ± 0.51%
Inhibition (%) 14th day ([3]; conc. 55.5 μg/ml): 52.81 ± 2.81%
SMILES: N=C(N)NN [Aminoguanidine]
